Data as given in patent US12391676B2 (H. LEE MOFFITT CANCER CENTER AND RESEARCH INSTITUTE, INC., priority 2018, dated 2025).
Where two headings read alike, the source gives them in different places.

Tests used:
[1] = target: T1, BRD4 (Homo sapiens (Human), UniProt O60885); assay: BRD4 DSF thermal shift (ΔTm); format: binding; conditions: for DSF ΔTm: Table 1; for BRD4 DSF (ΔTm): Table 2
[2] = target: BRD4-1 (Homo sapiens (Human), UniProt O60885); assay: Estimated BRD4-1 IC50; format: binding; conditions: Table 1
[3] = target: T1, BRD4; assay: BRD4 IC50; format: binding; conditions: Table 2
[4] = target: JAK2 (Homo sapiens (Human), UniProt O60674); assay: JAK2 IC50; format: biochemical
JAK2, sequence (O60674 whole entry): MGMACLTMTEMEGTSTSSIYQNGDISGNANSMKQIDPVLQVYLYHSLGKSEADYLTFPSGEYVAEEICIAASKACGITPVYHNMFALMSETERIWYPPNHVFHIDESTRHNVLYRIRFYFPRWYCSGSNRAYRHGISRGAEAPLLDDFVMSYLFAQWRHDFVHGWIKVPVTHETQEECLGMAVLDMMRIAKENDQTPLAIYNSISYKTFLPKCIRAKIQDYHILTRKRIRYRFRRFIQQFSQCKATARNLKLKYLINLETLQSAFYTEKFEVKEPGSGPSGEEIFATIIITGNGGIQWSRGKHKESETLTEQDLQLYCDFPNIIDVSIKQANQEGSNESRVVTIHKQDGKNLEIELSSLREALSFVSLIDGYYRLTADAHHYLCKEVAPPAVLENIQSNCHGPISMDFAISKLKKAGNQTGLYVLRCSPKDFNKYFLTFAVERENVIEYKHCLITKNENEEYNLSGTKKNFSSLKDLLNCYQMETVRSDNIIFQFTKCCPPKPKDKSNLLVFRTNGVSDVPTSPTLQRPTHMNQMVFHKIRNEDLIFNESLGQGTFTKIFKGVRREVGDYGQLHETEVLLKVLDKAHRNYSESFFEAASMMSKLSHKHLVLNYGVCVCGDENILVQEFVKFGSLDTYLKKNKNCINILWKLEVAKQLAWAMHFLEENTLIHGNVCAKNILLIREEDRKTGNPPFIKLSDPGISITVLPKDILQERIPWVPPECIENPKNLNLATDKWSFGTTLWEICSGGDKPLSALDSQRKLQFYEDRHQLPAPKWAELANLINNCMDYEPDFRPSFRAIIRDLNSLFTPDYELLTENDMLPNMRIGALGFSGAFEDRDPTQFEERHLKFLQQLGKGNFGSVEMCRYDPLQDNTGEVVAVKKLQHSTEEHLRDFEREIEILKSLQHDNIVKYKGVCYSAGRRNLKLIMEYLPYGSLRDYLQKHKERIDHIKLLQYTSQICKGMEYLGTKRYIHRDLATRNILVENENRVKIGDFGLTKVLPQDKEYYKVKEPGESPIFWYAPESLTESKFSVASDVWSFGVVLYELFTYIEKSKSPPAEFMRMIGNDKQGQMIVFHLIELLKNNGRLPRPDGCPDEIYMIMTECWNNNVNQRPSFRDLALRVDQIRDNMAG

[5] = system: MM1.S cells; assay: Antiproliferative activity, MM1.S cells; format: cell-based; conditions: Homo sapiens; for GI50: Table 2, read-out: GI50 (MM1S)
Procedure: Cellular activity of promising compounds is assessed using MM.1S and MV4-11 AML cells using c-Myc levels as biomarker (6-12 hr treatment) and antiproliferative activity (48-72 hr treatment) as described (Ciceri et al., Dual kinase-bromodomain inhibitors for rationally designed polypharmacology. Nat Chem Biol 2014).

[6] = system: UKE1 cells; assay: Growth inhibition GI50, UKE1 cells; format: cell-based
[7] = system: UKE1 cells; assay: Drug persistence of UKE1 cells under escalating drug concentration; format: cell-based; conditions: for development of drug persistence: UKE1 cells started at GI20, concentration doubled if growth >90% of DMSO; for final drug concentration at the end of the experiment: drug persistence experiment
Procedure: UKE1 cells were incubated with DMSO, MA9-060, fedratinib, or ruxolitinib at their respective GI20 concentrations. Cell growth was compared to DMSO. Cells were passed back to the same density after counting. Drug concentration was doubled if growth was >90% of DMSO. Fold GI20 is plotted vs time, with drug persistence represented by upward steps of the lines. The final MA9-060, ruxolitinib, and fedratinib concentrations at the end of the experiment were 0.15, 0.6 and 2.4 uM, respectively. Fedratinib-treated cells lost complete viability after about 30 days (after 3 weeks in 2.4 uM).

[8] = system: c-Myc; conditions: background, literature; cited from earlier work
[9] = UKE1, Table 2, read-out: GI50 (UKE1)

For `Cc1cnc(Nc2ccc(N3CCN(CCCN)CC3)c(F)c2)nc1Nc1ccc(Cl)c(NS(=O)(=O)C(C)(C)C)c1`, the “DSF ΔTm” value [1] was 11 ± 0.02 °C and the IC50 [2] was 4.6 nM.
For `Cc1cnc(Nc2cc(F)cc(N3CCN(C)CC3)c2)nc1Nc1ccc(Cl)c(NS(=O)(=O)C(C)(C)C)c1` [MA9-062, N-(2-Chloro-5-((2-((3-fluoro-5-(4-methylpiperazin-1-yl)phenyl)amino)-5-methylpyrimidin-4-yl)amino)phenyl)-2-methylpropane-2-sulfonamide], the “BRD4 DSF (ΔTm)” value [1] was 11.3 °C, the IC50 [3] was 49 nM and the IC50 ([4]; Table 2) was 17 nM. For the same molecule, the GI50 [5] was 160 nM.
In the case of `Cc1cnc(Nc2ccc(C3CCN(C)CC3)cc2)nc1Nc1cccc(NS(=O)(=O)C(C)(C)C)c1` [drawing 12], the “DSF ΔTm” value [1] is reported as 10.6 °C, the GI50 ([6]; UKE1, Table 1 comments, read-out: GI50 (UKE1 cells)) is reported as 220 nM and the IC50 ([5]; Table 1 comments) is reported as 91 nM.
For `N#CC[C@H](C1CCCC1)n1cc(-c2ncnc3[nH]ccc23)cn1` [ruxolitinib], the “development of drug persistence” value [7] was “persistently grew in increasing concentrations” and the “final drug concentration at the end of the experiment” value ([7]; UKE1 cells) was 0.6 µM.
With `Cc1cnc(Nc2cc(F)c(C3CCN(C)CC3)cn2)nc1Nc1ccc2c(c1)N(S(=O)(=O)C(C)(C)C)CC2` [PN2-128, N^4-(1-(tert-Butylsulfonyl)indolin-6-yl)-N^2-(4-fluoro-5-(1-methylpiperidin-4-yl)pyridin-2-yl)-5-methylpyrimidine-2,4-diamine] the “BRD4 DSF (ΔTm)” value [1] was 12.8 °C, the GI50 [6, 9] was 207 nM and the GI50 [5] was 186 nM.
For `Cc1cnc(Nc2cc(F)c(C3CCN(C)CC3)cn2)nc1Nc1ccc(F)c(NS(=O)(=O)C(C)(C)C)c1` [PN2-089, N-(2-Fluoro-5-((2-((4-fluoro-5-(1-methylpiperidin-4-yl)pyridin-2-yl)amino)-5-methylpyrimidin-4-yl)amino)phenyl)-2-methylpropane-2-sulfonamide], the “BRD4 DSF (ΔTm)” value [1] was 13.4 °C, the GI50 [6, 9] was 134 nM and the GI50 [5] was 72 nM.
In the case of `Cc1cnc(Nc2ccc(OCCN3CCCC3)c(F)c2)nc1Nc1ccc2c(c1)N(S(=O)(=O)C(C)(C)C)CC2` [MA11-007, N4-(1-(tert-butylsulfonyl)indolin-6-yl)-N2-(3-fluoro-4-(2-(pyrrolidin-1-yl)ethoxy)phenyl)-5-methylpyrimidine-2,4-diamine], the “BRD4 DSF (ΔTm)” value [1] is reported as 13.7 °C, the GI50 [6, 9] is reported as 260 nM and the GI50 [5] is reported as 135 nM.
For `Cc1cnc(Nc2ccc(N3CCN(C)CC3)c(F)c2)cc1Nc1cccc(NS(=O)(=O)C(C)(C)C)c1` [SY3-005, N-(3-((2-((3-Fluoro-4-(4-methylpiperazin-1-yl)phenyl)amino)-5-methylpyridin-4-yl)amino)phenyl)-2-methylpropane-2-sulfonamide], the “BRD4 DSF (ΔTm)” value [1] was 6.0 °C, the IC50 [3] was 3960 nM and the IC50 ([4]; Table 2) was over 1000 nM. It also gave a GI50 [6, 9] of 5300 nM and a GI50 [5] of 3310 nM.
For `Cc1cnc(Nc2ccc(N3CCN(C)CC3)cc2)nc1Nc1cccc(S(=O)(=O)NC(C)(C)C)c1` [TG101209], the “downregulation of c-Myc in MM.1S cells” value [8] is given as “strong downregulation”.
With `Cc1cnc(Nc2cc(F)c(C3CCN(C)CC3)c(F)c2)nc1Nc1ccc2c(c1)N(S(=O)(=O)C(C)(C)C)CC2` [PN2-129, N^4-(1-(tert-butylsulfonyl)indolin-6-yl)-N^2-(3,5-difluoro-4-(1-methylpiperidin-4-yl)phenyl)-5-methylpyrimidine-2,4-diamine] the “BRD4 DSF (ΔTm)” value [1] was 13.8 °C, the GI50 [6, 9] was 222 nM and the GI50 [5] was 152 nM.
In the case of `Cc1cnc(Nc2ccc(N3CCNCC3)c(F)c2)nc1Nc1ccc(Cl)c(NS(=O)(=O)C(C)(C)C)c1`, the “DSF ΔTm” value [1] is reported as 13 ± 0.05 °C, the IC50 [2] is reported as 1 nM and the IC50 ([4]; Table 1 comments, n = 2) is reported as 2.73 nM.
For `Cc1cnc(Nc2ccc(C3CCN(C)CC3)c(F)c2)nc1Nc1ccc2c(c1)N(S(=O)(=O)C(C)(C)C)CC2` [MA9-086, N4-(1-(Tert-butylsulfonyl)indolin-6-yl)-N2-(3-fluoro-4-(1-methylpiperidin-4-yl)phenyl)-5-methylpyrimidine-2,4-diamine], the “BRD4 DSF (ΔTm)” value [1] was 13.4 °C, the IC50 [3] was 6.4 nM and the IC50 ([4]; Table 2) was 1.1 nM. It also gave a GI50 [5] of 194 nM.
For `Cc1cnc(Nc2ccc(OCCN3CCCC3)cc2)nc1Nc1ccc2c(c1)N(S(=O)(=O)C(C)(C)C)CC2` [MA11-006, N4-(1-(tert-butylsulfonyl)indolin-6-yl)-5-methyl-N2-(4-(2-(pyrrolidin-1-yl)ethoxy)phenyl)pyrimidine-2,4-diamine], the “BRD4 DSF (ΔTm)” value [1] was 11.0 °C, the GI50 [6, 9] was 502 nM and the GI50 [5] was 499 nM.
With `Cc1cnc(Nc2cc(F)cc(N3CCN(C)CC3)c2)nc1Nc1cccc(NS(=O)(=O)C(C)(C)C)c1` [SY3-040, N-(3-((2-((3-Fluoro-5-(4-methylpiperazin-1-yl)phenyl)amino)-5-methylpyrimidin-4-yl)amino)phenyl)-2-methylpropane-2-sulfonamide] the “BRD4 DSF (ΔTm)” value [1] was 11.1 °C, the IC50 [3] was 127 nM and the IC50 ([4]; Table 2) was 3.1 nM. It also gave a GI50 [5] of 220 nM.
With `Cc1cnc(Nc2ccc(C3CCN(C)CC3)cc2)nc1Nc1ccc(Cl)c(NS(=O)(=O)C(C)(C)C)c1` [MA9-050, N-(2-Chloro-5-((5-methyl-2-((4-(1-methylpiperidin-4-yl)phenyl)amino)pyrimidin-4-yl)amino)phenyl)-2-methylpropane-2-sulfonamide] the “BRD4 DSF (ΔTm)” value [1] was 12.3 °C, the IC50 [3] was 143 nM and the IC50 ([4]; Table 2) was 8.2 nM. The GI50 [6, 9] was 310 nM and the GI50 [5] was 110 nM.
With `Cc1cnc(Nc2ccc(N3CCN(CCCN)CC3)c(F)c2)nc1Nc1cccc(NS(=O)(=O)C(C)(C)C)c1` the “DSF ΔTm” value [1] was 9.4 ± 0.09 °C and the IC50 [2] was 15.7 nM.
For `Cc1cnc(Nc2ccc(C3CCN(C)CC3)cc2)nc1Nc1cccc(NS(=O)(=O)C(C)(C)C)c1` [SY3-034, 2-Methyl-N-(3-((5-methyl-2-((4-(1-methylpiperidin-4-yl)phenyl)amino)pyrimidin-4-yl)amino)phenyl)propane-2-sulfonamide], the “BRD4 DSF (ΔTm)” value [1] was 10.6 °C, the IC50 ([4]; Table 2) was 1.6 nM and the GI50 [6, 9] was 220 nM. The GI50 [5] was 91 nM.
With `Cc1cnc(Nc2cc(F)c(C3CCN(C)CC3)c(F)c2)nc1Nc1cccc(NS(=O)(=O)C(C)(C)C)n1` [MA11-035, N-(6-((2-((3,5-difluoro-4-(1-methylpiperidin-4-yl)phenyl)amino)-5-methylpyrimidin-4-yl)amino)pyridin-2-yl)-2-methylpropane-2-sulfonamide] the “BRD4 DSF (ΔTm)” value [1] was 5.1 °C and the GI50 [6, 9] was 761 nM.
For `Cc1cnc(Nc2ccc(OCCN3CCCC3)cc2)nc1Nc1cccc(S(=O)(=O)NC(C)(C)C)c1` [fedratinib], the “development of drug persistence” value [7] was “persistently grew in increasing concentrations”, the “time until treated cells lost complete viability” value ([7]; UKE1 cells, after 3 weeks in 2.4 uM) was “about 30 days” and the “final drug concentration at the end of the experiment” value ([7]; UKE1 cells) was 2.4 µM.
For `Cc1ccc(Nc2nc(Nc3cc(F)c(C4CCN(C)CC4)cn3)ncc2C)cc1NS(=O)(=O)C(C)(C)C` [PN2-175, N-(5-((2-((4-Fluoro-5-(1-methylpiperidin-4-yl)pyridin-2-yl)amino)-5-methylpyrimidin-4-yl)amino)-2-methylphenyl)-2-methylpropane-2-sulfonamide], the “BRD4 DSF (ΔTm)” value [1] was 12.6 °C and the GI50 [6, 9] was 220 nM.
With `Cc1cnc(Nc2ccc(C3CCN(C)CC3)c(F)c2)nc1Nc1cccc(NS(=O)(=O)C(C)(C)C)c1` [SY3-038, N-(3-((2-((3-Fluoro-4-(1-methylpiperidin-4-yl)phenyl)amino)-5-methylpyrimidin-4-yl)amino)phenyl)-2-methylpropane-2-sulfonamide] the “BRD4 DSF (ΔTm)” value [1] was 12.3 °C, the IC50 [3] was 87 nM and the IC50 ([4]; Table 2) was 0.7 nM. The GI50 [6, 9] was 64 nM.
For `Cc1cnc(Nc2ccc(N3CCN(C)CC3)c(F)c2)cc1Nc1cccc(S(=O)(=O)NC(C)(C)C)c1` [MA9-024, N-(Tert-butyl)-3-((2-((3-fluoro-4-(4-methylpiperazin-1-yl)phenyl)amino)-5-methylpyridin-4-yl)amino)benzenesulfonamide], the “BRD4 DSF (ΔTm)” value [1] was 4.1 °C, the GI50 [6, 9] was over 24000 nM and the GI50 [5] was 4790 nM.
For `Cc1cnc(Nc2cc(F)c(C3CCN(C)CC3)c(F)c2)nc1Nc1ccc2ccn(S(=O)(=O)C(C)(C)C)c2n1` [MA11-012, N4-(1-(tert-butylsulfonyl)-1H-pyrrolo[2,3-b]pyridin-6-yl)-N2-(3,5-difluoro-4-(1-methylpiperidin-4-yl)phenyl)-5-methylpyrimidine-2,4-diamine], the “BRD4 DSF (ΔTm)” value [1] was 3.9 °C and the GI50 [6, 9] was 580 nM.
With `Cc1cnc(Nc2cc(F)c(C3CCN(C)CC3)cn2)nc1Nc1ccc(Cl)c(NS(=O)(=O)C(C)(C)C)c1` [PN1-064, N-(2-Chloro-5-((2-((4-fluoro-5-(1-methylpiperidin-4-yl)pyridin-2-yl)amino)-5-methylpyrimidin-4-yl)amino)phenyl)-2-methylpropane-2-sulfonamide] the “BRD4 DSF (ΔTm)” value [1] was 13.6 °C, the GI50 [6, 9] was 54 nM and the GI50 [5] was 43 nM.
For `CC[C@@H]1C(=O)N(C)c2cnc(Nc3ccc(C(=O)NC4CCN(C)CC4)cc3OC)nc2N1C1CCCC1` [BI2536], the “downregulation of c-Myc in MM.1S cells” value [8] is listed as “strong downregulation”.
